“Also recorded” adds a separate entry of the source.
Legend:
[1] = tested on: Poa annua (annual bluegrass) seeds; assay: Standard GAF Bioassay System (Standard Poa Bioassay), seed germination scored after 7 days; assay type: in vivo; conditions: for GERMINATION SCORE: purified GAF
Procedure: The seed of Poa annua (or other test seeds) were surface-sterilized by placing two to five grams of seeds in a 50 ml glass beaker, covering the seeds with a 50% (v/v) solution of H2SO4, and stirring vigorously for 5 minutes. The seed/acid mixture was filtered through a Gooch crucible and repeatedly rinsed with tap water to remove residual acid. The seeds were then placed in a beaker and covered with bleach (Clorox®, NaOCl, 5.25%) containing 1% (v/v) polyoxethylene sorbitan monolaurate (Tween®-20). The seeds were stirred for 5 minutes and then repeatedly rinsed with sterile deionized water and placed in a sterile Petri dish. The seeds were used immediately while wet or dried (spread in a thin layer and allowed to dry under a laminar flow hood with the Petri dish lid ajar for 4 to 8 hours) to prevent premature germination.
Bioassays for GAF activity were performed with Poa annua (annual bluegrass) seeds unless otherwise indicated. For each concentration of each test solution, 200 μl aliquots of solution were distributed to each of three wells of a sterile Costar® forty-eight well tissue culture plate (Corning® Costar® Number 3548). Three surface-sterilized Poa annua seeds were aseptically transferred to each well and submerged in the liquid, providing a total of nine observations for each concentration of each solution tested. The lid of the tissue culture plate was sealed with Parafilm® and the plate was placed in a germinator at 20° C. (8 hour day length at a light intensity of 50 μmol/m^2/s, 16 hour dark period) for seven days. Germination was scored on the basis of the following four-point system: • Score 0: No visible signs of germination. • Score 0.5: Seed coat split but plumule and coleorhiza are not visible. • Score 1.0: Plumule and coleorhiza visible. Plumule chlorotic and shorter than length of seed. Root not yet visible. • Score 1.5: Plumule still shorter than length of seed, but root is clearly visible. • Score 2.0: Plumule approximately equal in length to the seed. Root elongated. • Score 2.5: Plumule obviously longer than length of seed. First true leaf still enclosed in coleoptile. • Score 3.0: First true leaf emerged from coleoptile and green. Emerged portion of the leaf is obviously shorter than the coleoptile. • Score 3.5: First true leaf emerged from coleoptile and green. Emerged portion of the leaf is approximately equal in length to the coleoptile. • Score 4.0: First true leaf emerged from coleoptile and green. Emerged portion of the leaf is obviously longer than the coleoptile.

[2] = Solubility of GAF in organic solvents; assay type: physicochemical
Procedure: Further characterization of GAF described its size and solubility, as well as the stability of its activity over time and under varying temperature and pH conditions (see Banowetz et al., Biological Control, 50: 103-110, 2009; which is hereby incorporated by reference). […] GAF activity in culture filtrates stored at 4° C. diminishes over time, with 10% activity remaining after 17 months.
We have termed this compound a Germination Arrest Factor (GAF), and we have identified this compound as 2-amino-4-formylaminooxy-but-3-enoic acid (also called 2-amino-4-formylaminooxyvinylglycine). The presence of this compound in culture filtrates of Pseudomonas can be assessed by extraction and chromatography procedures described in Example 1. […] Moreover, GAF has particular chromatographic properties that allow it to be detected in the culture filtrates of GAF-producing organisms as a distinctive ninhydrin-staining band located at a particular position on thin-layer chromatography plates when the extraction and chromatography protocols specified here are followed. […] The presence of a DNA sequence that codes for an open reading frame that is distinctive for a particular putative formyl-transferase.

[3] = tested on: seeds of grassy weeds and cultivated grasses; assay: Germination arrest / herbicidal activity against grassy weeds (general statements); conditions: in vivo
[4] = tested on: seeds of cereals (wheat and barley) and dicots; assay: Germination of seeds of cereals and dicots in presence of GAF; assay type: in vivo; conditions: compared with seeds of grass species
Established seedlings = assay: Sensitivity of established seedlings to GAF; conditions: in vivo
[5] = cited from earlier work
[6] = exposure limited to a few hours

With NC(/C=C/ONC=O)C(=O)O (centres unmarked) [GAF, 2-amino-4-formylaminooxy-but-3-enoic acid] the “POA BIOASSAY SCORES (±Standard Error of the Mean)” value ([1]; GAF Conc. 2X (relative to culture filtrate), partially purified GAF, metal 0 μM) was 1.00 ± 0.00, the “activity of GAF in arresting germination in the presence of copper ions” value ([1]; appropriate concentrations of copper ions) was “greatly reduced” and the “GERMINATION SCORE” value ([1]; pooled Sephadex G15 fractions, Undiluted Pooled Volume (100%)) was 1.00. The “GERMINATION SCORE” value ([1]; 1.25% Pooled Volume Concentration) was 1.92, the “GERMINATION SCORE” value ([1]; 2.5% Pooled Volume Concentration) was 1.00 and the “GERMINATION SCORE” value ([1]; 5% Pooled Volume Concentration) was 1.00. The “GERMINATION SCORE” value ([1]; 10% Pooled Volume Concentration) was 1.00, the “solubility in organic solvents” value [2] was “insoluble or sparingly soluble in organic solvents; also recorded: insoluble in organic solvents that are immiscible in water” and the “activity against grassy weeds, in words” value [3] was “irreversibly arrests the germination”. The “germination of seeds of cereals (wheat and barley) and dicots” value [4] was “much less sensitive to GAF”, the “sensitivity of established seedlings to GAF” value (Established seedlings) was “little if any sensitivity” and the GAF activity remaining ([5]; culture filtrates stored at 4° C., after 17 months) was 10%. For the same compound, the “activity under basic as well as acidic conditions” value [5, 6] was “remains active” and the “temperature at which GAF remains active” value [5, 6] was “up to 65 °C”.
